Assay [1] concerns the target rat brain PKC isozyme mixture. The experiment in a line: Protein Kinase C (Isozyme Mix) Assay. The conditions noted are these: for Ki: rat brain PKC isozyme mixture, read-out: Binding Affinity. In kind it is binding.
For the next assay, the target named is PKCδ-C1B (Homo sapiens (Human), UniProt Q05655). Description: PKCδ-C1B Assay. In kind it is binding.
A further assay has as its system P388 cell line. Description: P388 Murine Lymphocytic Leukemia Cell Assay. Conditions: 5 days incubation, MTT. In kind it is cell-based. How it is done:
Cells from a P388 cell line (CellGate, Inc., Sunnyvale, Calif.) are grown in RPMI 1640 cell medium containing fetal calf serum (10%), L-glutamine, penicillin, streptomycin and are split twice weekly. All compounds are first diluted with DMSO. Later serial dilutions are done with a phosphate buffer solution (HYQ DPBS modified phosphate buffered saline). All dilutions are done in glass vials and the final DMSO concentration is always below 0.5% by volume. Final two-fold dilutions are done in a 96 well plate using cell media so that each well contains 50 μL. All compounds are assayed in quadruplicate over 12 concentrations. Cell concentration is measured using a hemacytometer and the final cell concentration is adjusted to 1×10^4 cells/mL with cell medium. The resulting solution of cells (50 μL) is then added to each well and the plates are incubated for 5 days in a 37° C., 5% CO2, humidified incubator (Sanyo CO2 incubator). MTT solution (3-[4,5-dimethylthiazol-2-yl]-2,5-diphenyltetrazolium bromide, 10 μL) is then added to each well and the plates are re-incubated under identical conditions for 2 h. To each well is then added acidified isopropanol (150 μL of i-PrOH solution containing 0.05 N HCl) and mixed thoroughly. The plates are then scanned at 595 nm and the absorbances are read (Wallac Victor 1420 Multilabel Counter). The resulting data is then analyzed to determine an ED50 value using the Prism software package (GraphPad).

The structures appear in SMILES notation. Like-named read-outs stand apart in the source and are kept apart here.

A word on the Kd: it is the concentration at which binding is half-saturated.

Chain of PKCδ-C1B (Q05655 whole entry, looked up): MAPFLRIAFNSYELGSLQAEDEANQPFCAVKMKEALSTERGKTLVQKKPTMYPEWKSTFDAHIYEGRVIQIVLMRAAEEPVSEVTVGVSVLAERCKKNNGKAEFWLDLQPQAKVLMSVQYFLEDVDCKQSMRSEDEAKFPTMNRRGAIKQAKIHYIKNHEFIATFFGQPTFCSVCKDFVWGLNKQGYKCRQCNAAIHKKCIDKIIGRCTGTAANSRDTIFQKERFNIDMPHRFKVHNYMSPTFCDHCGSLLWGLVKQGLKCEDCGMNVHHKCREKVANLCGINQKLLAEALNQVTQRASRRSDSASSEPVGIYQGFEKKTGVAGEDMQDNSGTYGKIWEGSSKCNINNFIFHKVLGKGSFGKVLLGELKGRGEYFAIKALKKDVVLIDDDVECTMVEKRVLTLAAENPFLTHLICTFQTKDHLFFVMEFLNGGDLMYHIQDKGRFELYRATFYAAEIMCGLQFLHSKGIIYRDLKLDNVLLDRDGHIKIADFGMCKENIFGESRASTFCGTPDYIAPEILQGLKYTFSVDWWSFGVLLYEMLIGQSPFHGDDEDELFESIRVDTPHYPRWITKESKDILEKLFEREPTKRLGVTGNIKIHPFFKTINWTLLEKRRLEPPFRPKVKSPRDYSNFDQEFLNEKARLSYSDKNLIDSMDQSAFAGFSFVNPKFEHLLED

As to `CCCCCCCC(=O)O[C@H]1/C(=C/C(=O)OC)C[C@H]2C[C@H](CO)OC(=O)C[C@H](O)CCO[C@H](c3ccc(-c4ccccc4)cc3)C[C@@H]3CCO[C@H](/C=C/C(C)(C)[C@]1(O)O2)O3` [Formula 19B.1], in assay [1], the Ki is 3.1 nM.

For `CCCCCCCC(=O)O[C@H]1/C(=C/C(=O)OC)C[C@H]2C[C@H](CO)OC(=O)C[C@H](O)CCO[C@H](c3ccc(CCCOCCOCC)cc3)C[C@@H]3CCO[C@H](/C=C/C(C)(C)[C@]1(O)O2)O3` [Formula 19B.2], the Ki in assay [1] is 3.8 nM. As to `COC(=O)/C=C1\C[C@H]2C[C@H]([C@@H](C)O)OC(=O)C[C@H](O)C[C@@H]3CCC[C@H](C[C@@H]4CCO[C@H](/C=C/C(C)(C)[C@](O)(O2)[C@H]1OC(C)=O)O4)O3` [Formula 702.2], the Ki on PKCδ-C1B was 232 ± 11 nM. In the assay on P388 cell line, the “P388 Assay ED50” value is 181 nM. Turning to `CCCC(=O)O[C@@H]1[C@@H](C)[C@@]2(O)[C@@H](C=C(CO)C[C@]3(O)C(=O)C(C)=C[C@@H]23)[C@@H]2C(C)(C)[C@]12OC(=O)CCC` [Phorbol dibutyrate, phorbol 12,13-dibutyrate, reference compound], the Kd in assay [1] (under identical conditions to the PKC isozyme mix assay, read-out: Kd of [H^3]-PDBu) worked out at 1.55 nM. At PKCδ-C1B (competition with tritiated phorbol 12,13-dibutyrate), `CCCCCCC(=O)OC1C(=CC(=O)OC)CC2CC(C(C)O)OC(=O)CC(O)CC3CCCC(CC4CCOC(C=CC(C)(C)C1(O)O2)O4)O3` (stereo not shown) [Formula 702.3] displayed a Ki of 35 nM. Besides, the “P388 Assay ED50” value in the assay with P388 cell line was found to be 38 nM. As to `CCCCCCCC(=O)O[C@H]1/C(=C/C(=O)OC)C[C@H]2C[C@H](CO)OC(=O)C[C@H](O)CCO[C@H](c3ccccc3)C[C@@H]3CCO[C@H](/C=C/C(C)(C)[C@]1(O)O2)O3` [Formula 19B.0], the Ki in assay [1] came to 2.3 nM. On the same count and under the same terms, as for `CCCCCC/C=C/c1ccc([C@@H]2C[C@@H]3CCO[C@H](/C=C/C(C)(C)[C@]4(O)O[C@@H](C/C(=C\C(=O)OC)[C@@H]4OC(=O)CCCCCCC)C[C@H](CO)OC(=O)C[C@H](O)CCO2)O3)cc1` [Formula 19B.3], the figure is 4.6 nM; as for `CCCCCCCC(=O)O[C@H]1/C(=C/C(=O)OC)C[C@H]2C[C@H](CO)OC(=O)C[C@H](O)CCO[C@H](c3ccc(Br)cc3)C[C@@H]3CCO[C@H](/C=C/C(C)(C)[C@]1(O)O2)O3` [Formula 18C], 1.6 nM.

Values taken from patent US8497385B2, “Bryostatin analogues, synthetic methods and uses” (The Board of Trustees of the Leland Stanford Junior …, priority 2007, dated 2013).
